As usually defined, the IC50 is the point on the concentration scale where inhibition reaches its midpoint.

Results on 5 compounds are retold here after patent US8952176B2, “Heterocyclic compound having type I 11 β hydroxysteroid dehydrogenase inhibitory activity” (Shionogi & Co., Ltd., priority 2005, dated 2015).

The target in assay [1] is recombinant human 11β-HSD1 (Homo sapiens, UniProt P28845). Description: Enzyme activity assay on human 11β-HSD1 (HTRF cortisol). The conditions noted are these: recombinant human 11β-HSD1, 5 μM cortisone, 2 hours at 37° C. The format is biochemical. The protocol: Evaluation of 11β-HSD1 Inhibitors (Enzyme Activity Assay on Human 11β-HSD1)
Enzymatic activity for human 11β-HSD1 was determined in a 10 μl final volume of assay mixture containing 50 mM sodium phosphate buffer (pH 7.6), 1 mg/ml bovine serum albumin, 0.42 mg/ml NADPH, 1.26 mg/ml glucose-6-phosphate, glucose-6-phosphate dehydrogenase, test compound, recombinant human 11β-HSD1, and 5 μM cortisone as substrate. The reaction was started with the addition of cortisone. After incubation for 2 hours at 37° C., 5 μl of europium cryptate-labelled anti-cortisol antibody and 5 μl of XL665-labeled cortisol were added. After further incubation for 2 hours at room temperature, the homogeneous time-resolved fluorescence (HTRF) signal was measured. The cortisol production was quantitated by a standard curve generated with several known concentrations of cortisol in each assay.
The amount of cortisol production without compounds was served as control, and the percent inhibition by test compound at each concentration was calculated. The IC50 value of the compound for 11β-HSD1 was obtained using the inhibition curve generated by plotting the percent inhibition versus the concentration of text compound.
A general note: In TR-FRET formats the signal depends on donor and acceptor labels being close together.

Assay [2] deals with recombinant mouse 11β-HSD1 (Mus musculus, UniProt P50172). The assay can be described thus: Enzyme activity assay on mouse 11β-HSD1 (HTRF corticosterone). The format is biochemical. The conditions noted are these: recombinant mouse 11β-HSD1, 11-dehydrocorticosterone substrate, 2 hours at 37° C. The protocol: […] (Enzyme Activity Assay on Mouse 11β-HSD1)
Enzymatic activity for mouse 11β-HSD1 activity was determined in a 10 μl final volume of assay mixture containing 50 mM sodium phosphate buffer (pH 7.6), 1 mg/ml bovine serum albumin, 0.042 mg/ml NADPH, 1.26 mg/ml glucose-6-phosphate, glucose-6-phosphate dehydrogenase, test compound, recombinant mouse 11β-HSD1, and […] 11-dehydrocorticosterone as substrate. The reaction was started with the addition of 11-dehydrocorticosterone. After incubation for 2 hours at 37° C., 5 μl of europium cryptate-labelled anti-cortisol antibody and 5 μl of XL665-labeled cortisol were added. After further incubation for 2 hours at room temperature, the HTFR signal was measured. The corticosterone production was quantitated by a standard curve generated with several known concentrations of corticosterone in each assay.
Corticosterone production without compounds was served as control, and the percent inhibition by compound at each concentration was calculated. The IC50 value of the compound for 11β-HSD1 was obtained using the inhibition curve generated by plotting the percent inhibition versus the concentration of test compound.

Structures are written as SMILES.

recombinant human 11β-HSD1, sequence (P28845 whole entry): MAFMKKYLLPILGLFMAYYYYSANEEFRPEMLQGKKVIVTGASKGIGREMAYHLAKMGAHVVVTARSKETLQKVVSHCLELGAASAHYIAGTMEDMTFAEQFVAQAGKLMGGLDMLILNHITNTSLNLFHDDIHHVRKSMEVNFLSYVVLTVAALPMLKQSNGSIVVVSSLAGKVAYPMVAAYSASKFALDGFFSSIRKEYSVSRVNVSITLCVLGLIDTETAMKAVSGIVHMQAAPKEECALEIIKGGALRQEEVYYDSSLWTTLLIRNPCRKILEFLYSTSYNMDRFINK
recombinant mouse 11β-HSD1, sequence (P50172 whole entry): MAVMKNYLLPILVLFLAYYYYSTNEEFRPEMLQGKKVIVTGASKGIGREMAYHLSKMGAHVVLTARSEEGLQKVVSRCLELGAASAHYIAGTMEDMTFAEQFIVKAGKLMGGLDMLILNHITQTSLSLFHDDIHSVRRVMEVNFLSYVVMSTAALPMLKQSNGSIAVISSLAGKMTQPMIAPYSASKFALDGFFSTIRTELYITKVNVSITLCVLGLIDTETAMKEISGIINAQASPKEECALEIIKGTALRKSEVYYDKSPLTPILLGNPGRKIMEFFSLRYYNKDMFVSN

On to `Cc1noc(C(=O)NC23CC4CC(CC(C4)C2)C3)c1Sc1ccccc1` [Compound A-1], for which the figures for the IC50 in assay [1] and in assay [2] were 0.084 µM and 21 µM, respectively.
Consider `Cc1noc(C(=O)NC23CC4CC(CC(C4)C2)C3)c1SC1CCCCC1` [Compound A-12], for which the IC50 in assay [1] came out at 0.08 µM; in assay [2], 6 µM.
The corresponding values for `Cc1noc(C(=O)c2ccccc2)c1SC1CCCCC1` [Compound A-15] are 0.016 µM and 11.6 µM.
As for `COc1noc(C(=O)c2ccccc2)c1S(=O)(=O)c1ccccc1` [Compound A-20], the IC50 turned out to be 0.093 µM in assay [1] and 5.9 µM in assay [2].
In the same order, the values of `Cc1noc(C(=O)NC23CC4CC(CC(C4)C2)C3)c1SC1CCCCCC1` [Compound A-21] are 0.015 µM and 21 µM.
